Assay results published in PubChem BioAssay (NCI).
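Each compound was tested at five concentrations against cells in 96-well plates for 48 hours. Abbreviation: GI50, concentration required for 50% inhibition of growth. The concentration for full growth arrest is given as TGI.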

Tests used:
Assay in all cases: NCI-60 cell line screen, 48 h
NCI-H226 lung = system: NCI-H226 lung
NCI-H522 lung = system: NCI-H522 lung
SK-MEL-2 melanoma = system: SK-MEL-2 melanoma
NCI-H23 lung = system: NCI-H23 lung
U251 CNS = system: U251 CNS
LOX IMVI melanoma = system: LOX IMVI melanoma
A498 renal = system: A498 renal
A549 NSCLC = system: A549 NSCLC
HL-60(TB) leukemia = system: HL-60(TB) leukemia
MOLT-4 leukemia = system: MOLT-4 leukemia

| Structure (SMILES) | GI50 (NCI-H226 lung) | TGI (NCI-H226 lung) | GI50 (NCI-H522 lung) | TGI (NCI-H522 lung) | GI50 (SK-MEL-2 melanoma) | TGI (SK-MEL-2 melanoma) | GI50 (NCI-H23 lung) | TGI (NCI-H23 lung) | GI50 (U251 CNS) | TGI (U251 CNS) | GI50 (LOX IMVI melanoma) | TGI (LOX IMVI melanoma) | GI50 (A498 renal) | TGI (A498 renal) | GI50 (A549 NSCLC) | TGI (A549 NSCLC) | GI50 (HL-60(TB) leukemia) | TGI (HL-60(TB) leukemia) | GI50 (MOLT-4 leukemia) | TGI (MOLT-4 leukemia) |
| --- | --- | --- | --- | --- | --- | --- | --- | --- | --- | --- | --- | --- | --- | --- | --- | --- | --- | --- | --- | --- |
| CC(C)CNCC(O)COc1ccc(C(C)(C)c2ccc(OCC(O)CNCC(C)C)cc2)cc1 (stereo unspecified) | 8.27 µM | 26.2 µM | 1.87 µM | 3.82 µM | 1.81 µM | 3.57 µM | 11.7 µM | 25.5 µM | 1.55 µM | 2.91 µM | 1.57 µM | 3.04 µM | 11.3 µM | 25.1 µM | 2.08 µM | 4.84 µM | 1.86 µM | 3.76 µM | 2.03 µM | 5.16 µM |
| CCCc1c(CC)c(=N)c2ccccc2n1C | 93.6 µM | > 100 µM | 65.6 µM | > 100 µM | > 100 µM | > 100 µM | 37.7 µM | > 100 µM | 47.9 µM | > 100 µM | > 100 µM | > 100 µM | 22.8 µM | > 100 µM | > 100 µM | > 100 µM | > 100 µM | > 100 µM | > 100 µM | > 100 µM |
| C[C@H](NC(=O)[C@@H]1CSSC[C@@H](NC(=O)c2nc3ccccc3cc2O)C(=O)NCC(=O)N1C)c1ccccc1 | 8.87 µM | 17.4 µM | 3.13 µM | 10.2 µM | 2.55 µM | 10.1 µM | 5.14 µM | 12.6 µM | 2.38 µM | 7.46 µM | 0.649 µM | 1.52 µM | 15 µM | 33.5 µM | 7.06 µM | 15.8 µM | 1.2 µM | 4.78 µM | 0.894 µM | 3.27 µM |
| COc1ccc(Nc2ncc(Br)c(NCCCNC(=O)C3CCC3)n2)cc1 | 4.8 µM | 37.7 µM | 24 µM | > 100 µM | 22.9 µM | 55.7 µM | 16.6 µM | 62.2 µM | 12.4 µM | > 100 µM | 4.06 µM | 18.1 µM | 12.3 µM | 27.2 µM | 14.3 µM | 37.8 µM | 5.59 µM | 45.8 µM | 5.92 µM | > 100 µM |
| CCCn1c(SC)nc(COC(=O)NC)c1COC(=O)NC | – | > 100 µM | – | > 100 µM | – | > 100 µM | – | > 100 µM | – | – | – | > 100 µM | – | > 100 µM | – | > 100 µM | – | > 100 µM | – | > 100 µM |
| CCC(=O)O[C@H]1CC[C@H]2[C@@H]3CC[C@H]4CC(=O)[C@H](C)C[C@]4(C)[C@H]3CC[C@]12C | > 96.2 µM | > 100 µM | 38.4 µM | > 100 µM | 32 µM | > 100 µM | 43.6 µM | > 100 µM | 34 µM | > 100 µM | 25.2 µM | > 100 µM | 28 µM | > 100 µM | 19.5 µM | > 57.5 µM | 5.57 µM | 24.3 µM | 9.11 µM | > 85.6 µM |
| CC(C)C1(O)C(c2ccccc2)=C(c2ccccc2)C(c2ccccc2)=C1c1ccccc1 | – | 31.6 µM | – | 23.9 µM | – | 18.9 µM | – | 91.3 µM | – | 18.7 µM | – | 20 µM | – | 56.3 µM | – | 54.6 µM | – | 7.07 µM | – | 9.27 µM |
| O=[N+]([O-])c1ccc(S(=O)Cc2ccccc2)c([N+](=O)[O-])c1 (stereo unspecified) | 2.27 µM | 5.3 µM | 1.32 µM | 2.94 µM | 8.54 µM | 22.3 µM | 2.54 µM | 8.91 µM | 11.4 µM | 24.3 µM | 1.6 µM | 2.94 µM | 13 µM | 25.7 µM | 16.3 µM | 36.3 µM | 2.21 µM | 5.2 µM | 2.1 µM | 4.88 µM |
| Oc1ccc(C(c2ccc(O)cc2)c2ccc(Cl)cn2)cc1 | 1.93 µM | > 45.8 µM | 2.63 µM | 69.8 µM | 4.31 µM | 60.3 µM | 0.0959 µM | 0.983 µM | 42.3 µM | > 100 µM | 0.295 µM | > 100 µM | 0.344 µM | 26.5 µM | 1.21 µM | > 100 µM | 3.56 µM | 22 µM | 23.7 µM | > 100 µM |
| O=c1[nH]c(=O)n([C@@H]2C[C@H](CO)[C@H](O)C2)cc1/C=C/Br | – | > 100 µM | – | > 100 µM | – | > 100 µM | – | > 100 µM | – | > 100 µM | – | > 100 µM | – | > 100 µM | – | > 100 µM | – | > 100 µM | – | > 100 µM |
| COc1ccc(C2SCC(=O)N2NC(=O)C(O)c2ccccc2)cc1OC (stereo unspecified) | > 100 µM | > 100 µM | > 100 µM | > 100 µM | > 100 µM | > 100 µM | – | – | > 100 µM | > 100 µM | > 100 µM | > 100 µM | > 100 µM | > 100 µM | > 100 µM | > 100 µM | > 100 µM | > 100 µM | > 100 µM | > 100 µM |
| COC(=O)C1C(O)CC(c2ccccn2)N(Cc2ccccc2)C1c1ccccn1 (stereo unspecified) | – | > 100 µM | – | > 100 µM | – | > 100 µM | – | > 100 µM | – | > 100 µM | – | > 100 µM | – | > 100 µM | – | > 100 µM | – | 65.1 µM | – | > 100 µM |
| O=C(Nc1cccc([N+](=O)[O-])c1)C(=O)C(C(=O)c1ccccc1-c1ccccc1)C1OC(=O)c2ccccc21 (stereo unspecified) | – | 25.9 µM | – | 26.2 µM | – | 38.3 µM | – | 30.1 µM | – | 27.7 µM | – | 36.6 µM | – | 60.2 µM | – | 82.7 µM | – | 56.5 µM | – | 52.4 µM |
| COc1ccc(-c2oc3c(OC)c(OC)c(OC)c(O)c3c(=O)c2OC)cc1OC | – | > 88.7 µM | – | 44.6 µM | – | 66.2 µM | – | > 83.8 µM | – | > 100 µM | – | > 76.3 µM | – | > 64.8 µM | – | > 100 µM | – | 26.1 µM | – | 51.9 µM |
| COc1ccc(NC(=O)C(=O)Cc2nc3ccc([N+](=O)[O-])cc3[nH]c2=O)c(OC)c1 | – | > 100 µM | – | > 100 µM | – | > 100 µM | – | > 100 µM | – | – | – | > 100 µM | – | > 100 µM | – | > 100 µM | – | > 100 µM | – | > 100 µM |
